Format in all cases: functional
Assay [1] relates to Mus musculus. Put plainly: Analgesic activity by injecting compound subcutaneously and measuring the inhibition of phenyl-p-benzoquinone-induced writhing (PQW) in mice. The conditions noted are these: sc. (An intraperitoneal irritant provokes the stretching counted in writhing tests.)
For assay [2], the system named is Mus musculus. In words: Antidepressant activity by injecting 20 mg/kg of compound intraperitoneally and measuring the ability to prevent tetrabenazine (TBZ) induced ptosis in mice. The conditions noted are these: ip, route intraperitoneal.
For assay [3], the species on record is Mus musculus. In words: Antidepressant activity by injecting compound perorally and measuring the ability to prevent tetrabenazine (TBZ) induced ptosis in mice.
For assay [4], the system named is Mus musculus. In words: Antidepressant activity by injecting compound intraperitoneally and measuring the ability to prevent tetrabenazine (TBZ) induced ptosis in mice. The conditions noted are these: ip.

Structures are written as SMILES.

Usually ED50 stands for the midpoint of the dose-response relation. A high value points to a need for a large dose. In general, inhibition in vivo refers to the share of the control response that was lost under treatment. The low end stands for a weak effect, the high end for a strong effect. `CC1=Nc2ccccc2N2CC3(CCN(C)CC3)c3cccc1c32.Cl.Cl` displayed an ED50 in assay [1] of 4.7 mg/kg. The inhibition in vivo at 20 mg/kg in assay [2] is 50%.
Take `CN1CCC2(CC1)CN1c3ccccc3N=Cc3cccc2c31`: 20 mg/kg produced 20% inhibition in vivo in assay [2].
Compound `CC1Nc2ccccc2N2CC3(CCN(C)CC3)c3cccc1c32.Cl.Cl` (stereo not drawn) showed an ED50 in assay [1] of 9.73 mg/kg. The same compound returned an inhibition in vivo at 20 mg/kg in assay [2] of 20%.
`CN1CCC2(CC1)CN(c1ccccc1N)c1ccccc12`: the figures for the ED50 in assay [3], in assay [1] and in assay [4] were 1.9 mg/kg, 11.6 mg/kg and 4 mg/kg, respectively.

The record behind these values is ChEMBL document CHEMBL1122601, “Novel tetracyclic spiropiperidines. 4. Synthesis and pharmacological evaluation of spiro- and 6,7-dihydrospiro[benzo[b]pyrrolo[3,2,1-jk][1,4]benzodiazepine-2 (1H),4'-piperidine]s” (1984).
